Data as given in patent US6232340A, “Vanadium complexes and derivatives thereof and methods related thereto” (priority 1998, dated 2001).
“Also recorded” adds a separate entry of the source.

What was measured:
IL-1 = test: Northern blot, synovial IL-1 expression in CIA rats; format: in vivo; settings: vs control group
Description: (§1) Collagenase, stromelysin, and IL-1 mRNA were readily detected in the vehicle control group. When normalized for RNA loading, expression of all three genes was decreased in the animals in the BMOV-treated group compared to the control group.

collagenase = test: Northern blot, synovial collagenase expression in CIA rats; format: in vivo; settings: vs control group
Description: as §1

stromelysin = test: Northern blot, synovial stromelysin expression in CIA rats; format: in vivo; settings: vs control group
Description: as §1

[1] = system: Collagen Induced Arthritis; test: Treatment of collagen induced arthritis (CIA) with BMOV and NAC; format: in vivo, rats
Procedure: CIA in rats is a model of chronic inflammatory synovitis with pannus formation, neovascularization, and joint destruction similar to rheumatoid arthritis (RA). After immunization with native collagen type II (CII) in incomplete Freund's adjuvant, 90-100% of genetically susceptible rats reliably develop clinical arthritis within 10 to 14 days.
Arthritis is induced in syngeneic 8 week old female Louvain (LOU) rats by intradermal immunization under ether anaesthesia on Day 0 with 0.5 mg native chick collagen II (CII) (Genzyme, Boston, Mass.) solubilized in 0.1M acetic acid and emulsified in incomplete Freund's adjuvant (IFA) (Difco, Detr, Mich.) (D. E. Trentham et al., J. Exp. Med. 146:857-868, 1977). Onset of clinical arthritis typically develops in 90-100% of control rats 10-12 days post CII immunization.
On day 10 post immunization, arthritis-induced rats are randomized into two groups. Control rats (n=10) receive only an aqueous vehicle at a dose of 100 mg/kg/day s.c. The experimental group (n=10) receives an aqueous vehicle at 100 mg/kg/day s.c., as well as O[BEOV]2 subcutaneously at the appropriate dose.
The severity of clinical arthritis in each limb is scored daily based on an objective integer scale of 0-4 (D. E. Trentham et al., J. Exp. Med. 146:857-868, 1977). A score of 0 indicates an unaffected limb, while a score of 4 represents fulminant erythema and edema involving distal digits. The arthritic index is defined as the sum of its four limb scores. Since CIA typically involves only the hind limbs, an arthritic index of 6 to 8 is considered to represent severe arthritis.
At the end of the study (Day 18-post arthritis onset), hind limb radiographs are obtained. An investigator blinded to the treatment protocol assigns a score to each limb, based on the degree of soft tissue swelling, joint space narrowing, periosteal new bone information, and the presence of erosions and ankylosis (0=normal; 3=maximal joint destruction). The radiographic index is defined as the sum of the limbs.
The humoral immunity is evaluated by collecting rat serum on Day 18 post arthritis onset for measuring anti-CII IgG by an enzyme linked immunosorbent assay (ELISA) (E. Brahn and D. E. Trentham, Cell Immunol. 86:421-428, 1984; E. Brahn and D. E. Trentham, Cell Immunol. 118:491-503, 1989). Antibody titers are normalized against a previously standardised curve and absorbance read at 490 nm at a serum dilution of 1:2500.
Synovium is selected from rats on Day 5 and Day 18-post arthritis onset to study joint morphology using electron microscopy. On Day 18-post arthritis onset, one ankle joint of each arthritic control and O[BEOV]2 -treated rat is removed, critical point dried, and gold sputter-coated for scanning electron microscopy to examine the trochlear surfaces. Conventional transmission electron microscopy is also performed on the articular cartilage of the trochlear surfaces of native, arthritic control, and O[BEOV]2 -treated animals.

[2] = isotonic phosphate buffered saline
[3] = Maximum Tolerated Dose study, i.v. b.i.d. for nine days in DBA-2 mice (Example 34); format: in vivo, female mice (DBA-2)
Procedure: A Maximum Tolerated Dose (M.T.D.) study was undertaken to determine a safe tolerable dose for administration of OHBEOV through an intravenous route of administration delivered twice daily for nine days in female mice (DBA-2). The protocol was as follows. 8 DBA-2 female mice were randomly divided into groups of 2 for a total of 4 groups. Groups were treated as follows. Vehicle (sterile isotonic phosphate buffer, pH 7.2) was filtered through 0.22 μm sterile filter (Costar 140666).
(§2) 1) Vehicle control: 300 μl/dose for a total of 600 μl/day.
(§3) Mice were weighed as a group (N=2) prior to injection in the morning. […] Treatment continued for a total of nine days. Groups were observed and weighed daily for 2 weeks following the final treatment and observed for behavioral signs of toxicity, i.e., reduced preening, and mobility and organ failure, i.e., weight loss, death. Following this period, mice were terminated with carbon dioxide. Liver, spleen and kidney (and other organs) weighed and kept for histology if appearance appeared abnormal.

[4] = Plasma glucose levels following acute and b.i.d. dosing (insulin mimetic effect); format: in vivo
MDAY-D2 tumors = test: Tumor efficacy on MDAY-D2 tumors in DBA-2 mice (Example 36); format: in vivo, murine tumor cells in DBA-2 mice
Procedure: The protocol used is as follows. 10 DBA-2 mice were randomly divided into 2 groups. Groups were treated as follows. […] Vehicle (isotonic phosphate buffer) was filtered through 0.22 μm sterile filter (Costar 140666).
(§4) The groups were as follows:
(§5) 1) Vehicle control: isotonic phosphate buffer. 300 μl/dose, total of 600 μl/day.
(§6) Treatment continued for a total of nine days. Mice were terminated on day 10 with carbon dioxide. Tumors were removed and weighed following blotting.

[5] = system: H460 (human non-small cell lung cancer); test: Efficacy on H460 human non-small cell lung cancer xenograft in SCID-RAG-2 mice (Example 37); format: in vivo, human tumor cells in SCID-RAG-2 female mice; settings: for tumor size reduction (caliper volumes) / reduction of tumor weight relative to control: 500 μg/dose s.c. b.i.d., 9 days; for tumor size reduction (caliper volumes): vs control; for reduction of tumor weight relative to control: day 10
Procedure: A study was undertaken to confirm the efficacy of OHBEOV and O[BEOV]2 using SCID-RAG-2 female mice with implanted human H460 tumors (lung cancer). […] The protocol used was as follows. 15 SKID-RAG-2 mice were randomly divided into 3 groups. Groups were treated as follows. […] Vehicle (isotonic phosphate buffer) was filtered through 0.22 pm sterile filter (Costar 140666).
as §4, §5, §6

[6] = system: H460 human non-small cell lung cancer
Procedure: The purpose was to establish safe efficacious levels of s.c., b.i.d. administration of OHBEOV for 9 days. The protocol used is as follows. 20 female Scid/Rag-2 mice were randomly divided into 4 groups. Groups were treated as follows. H460 tumor cells were inoculated (50 μl 10^6 cells bilaterally in the posterior dorsal region) as discussed earlier. On day 11 following tumor inoculation, the 9 day treatment began. Vehicle (isotonic phosphate buffer) filtered through 0.22 μm sterile filter (Costar 14066).
Mice were weighed as a group prior to injection in the morning. Injections were s.c. in the neck region distal to the tumor sight and were delivered b.i.d. between 8-9 a.m. and between 4-5 p.m. Tumor volumes were estimated on a daily basis from measurements taken with calipers.

[7] = Maximum Tolerated Dose study, s.c. b.i.d. for nine days in DBA-2 mice (Example 33); format: in vivo, female mice (DBA-2)
Procedure: A Maximum Tolerated Dose (M.T.D.) study was undertaken to determine a safe tolerable dose for administration of OHBEOV through a parenteral (s.c.) route of administration delivered twice daily (b.i.d.) for nine days in female mice (DBA-2). The protocol was as follows. 14 DBA-2 mice were randomly divided into groups of 2 for a total of 7 groups. Groups were treated as follows. Vehicle (sterile isotonic phosphate buffer, pH 7.2) was filtered through 0.22 pm sterile filter (Costar 140666). OHBEOV was dissolved with gentle heating and stirring for about 20 min.
as §2
7) 300 μl of 2 mg/mL OHBEOV to be injected for a total of 1200 μg/day.
as §3, with “toxicity i.e.” for “toxicity, i.e.,”, “organs) were” for “organs)”

proliferating cells = settings: previous studies; cited from earlier work
non-proliferating cells = settings: previous studies; cited from earlier work
[8] = system: drug resistant cell lines; settings: previous studies; cited from earlier work
synoviocytes = settings: previously shown; cited from earlier work
[9] = xenograft model of human lung cancer

## Cc1occc(=O)c1[O-].Cc1occc(=O)c1[O-].[O]=[V+2] [BMOV, Bis(maltolato)oxovanadium(IV)]
IL-1; printed "IL-In", normalized for RNA loading
  inhibition of IL-1 gene expression: 85%
IL-1
  synovial expression of IL-1: to a lesser degree, IL-1, were reduced
collagenase; normalized for RNA loading
  inhibition of collagenase gene expression: 78%
collagenase
  synovial expression of collagenase: reduced
stromelysin; normalized for RNA loading
  inhibition of stromelysin gene expression: 58%
stromelysin
  synovial expression of stromelysin: reduced
[1]; 10 mg/kg/day
  diarrhoea: not observed
[1]; 15 mg/kg/day on Day 11 post arthritis onset
  diarrhoea: minor diarrhoea
[1]; joints vs control
  cartilage damage (scanning and transmission electron micrographs): little cartilage damage and intact cartilage
[1]; vs control rats
  trochlear surface of articular cartilage: normal trochlear surface
[1]; vs native animal
  articular cartilage ultrastructure (transmission electron micrographs): indistinguishable from the native animal

## CC(=O)N[C@@H](CS)C(=O)O [NAC]
[1]; NAC alone
  arthritis severity: developed severe arthritis; also recorded: no appreciable effect on the clinical severity of CIA

## CCc1occc(=O)c1[O][V](=[O])([OH])[O]c1c(CC)occc1=O [OHBEOV, Bis(2-ethyl-3-hydroxy-4-pyronato)hydroxyoxovanadium(V)]
[2]
  maximum solubility: 6000 µg/mL
[3]; doses up to and including 300 μg (600 μg/day) i.v., 9 day treatment and 14 day follow up
  weight loss: less than 15%
[3]; i.v.
  weight recovery following termination of treatment: all animals regained their original weight
[3]; per dose, i.v. b.i.d., 9 days, well tolerated
  tolerability (doses up to and including): 300 µg
[4]; acute and b.i.d. dosing
  plasma glucose levels following dosing: decreased following dosing
[4]; following dosing, non-diabetic animals
  plasma glucose level (normoglycemic range): 4 mM
[4]; single and multiple b.i.d. dosing
  time for plasma glucose to return to pre-dosing levels: ≤ 1 h
MDAY-D2 tumors; 500 μg/dose s.c. b.i.d., 9 days, vs control
  tumor size reduction (caliper volumes): significant reduction in tumor size
MDAY-D2 tumors; 500 μg/dose s.c. b.i.d., 9 days, day 10
  reduction of tumor weight relative to control: approximately 70%
MDAY-D2 tumors; murine solid tumor model at maximum tolerated dose, s.c. b.i.d. 9 days
  tumor efficacy: significant tumor efficacy was demonstrated
[5]
  tumor size reduction (caliper volumes): significant reduction in tumor size
  reduction of tumor weight relative to control: approximately 70%
[5]; human lung cancer xenograft at maximum tolerated dose, s.c. b.i.d. 9 days
  tumor efficacy: significant tumor efficacy was demonstrated
[6]; 600-1000 μg/day s.c., day 10
  dose-response of mean tumor weight: dose-response relationship
[6]; atomic absorption spectroscopy, end of study
  correlation of tumor vanadium with tumor size and dose: strongly correlated
[6]; in vivo
  myelosuppression: no evidence of myelosuppression
  plasma leukocyte count / immune response: no significant changes in plasma leukocyte count
[6]; [9]
  anti-tumor activity: significant dose-dependent anti-tumor activity
  final tumor size reduction: approximately 70%
[7]; 600 μg/dose s.c., visual inspection
  spleen appearance upon necropsy: enlarged
[7]; b.i.d., s.c. for 9 days
  maximum tolerated dose: 500 µg/day
[7]; doses up to and including 500 μg (1000 μg/day) s.c., 9 day treatment and 14 day follow up
  weight loss: less than 15%
[7]; maximum dose of 600 μg s.c.
  weight loss of one animal terminated: 25%
[7]; per dose, s.c. b.i.d., 9 days, well tolerated
  tolerability (doses up to and including): 500 µg
[7]; s.c.
  weight recovery following termination of treatment: all animals regained their original weight
[7]; s.c., higher doses
  skin lesions at the injection site: some skin lesions were noted
[7]; treatment protocol and dose level used to demonstrate tumor efficacy
  weight loss: less than 15%

## [O]=[V]([O-])([O-])[O-] [orthovanadate]
Proliferating cells
  effect on proliferating cells: toxic to proliferating cells
non-proliferating cells
  effect on non-proliferating cells: did not affect the non-proliferating cells
[8]
  toxicity to drug resistant cell lines: equally toxic to all the drug resistant cell lines
synoviocytes
  cytotoxicity to synoviocytes: cytotoxic to the cells
  synoviocyte proliferation: inhibited synoviocyte proliferation

## O=S(=O)([O-])[O-].[O]=[V+2] [vanadyl sulphate]
synoviocytes
  cytotoxicity to synoviocytes: cytotoxic to the cells
  synoviocyte proliferation: inhibited synoviocyte proliferation

## μ-Oxobis[bis(2-ethyl-3-hydroxy-4-pyronato)oxovanadium(V)] [O[BEOV]2]
[5]
  tumor size reduction (caliper volumes): significant reduction in tumor size
  reduction of tumor weight relative to control: approximately 70%
